The source of these data is BindingDB's records for doi:10.1124/jpet.301.1.37 (National Institutes of Health, 2002).

In test [1] the target is T1, VIP peptides (Cavia porcellus, UniProt P04566).
T1 sequence (P04566 whole entry): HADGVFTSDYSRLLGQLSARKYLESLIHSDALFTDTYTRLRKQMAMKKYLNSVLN

Test [2] addresses T2, VIP peptides (Rattus norvegicus, UniProt P01283).
T2 sequence (P01283 whole entry): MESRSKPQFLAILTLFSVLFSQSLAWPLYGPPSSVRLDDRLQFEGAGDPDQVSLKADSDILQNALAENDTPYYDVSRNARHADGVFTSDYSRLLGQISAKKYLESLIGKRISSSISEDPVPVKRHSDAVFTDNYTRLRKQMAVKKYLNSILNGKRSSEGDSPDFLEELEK

The target of test [3] is T3, VIP peptides (Homo sapiens, UniProt P01282).
T3 sequence (P01282 whole entry): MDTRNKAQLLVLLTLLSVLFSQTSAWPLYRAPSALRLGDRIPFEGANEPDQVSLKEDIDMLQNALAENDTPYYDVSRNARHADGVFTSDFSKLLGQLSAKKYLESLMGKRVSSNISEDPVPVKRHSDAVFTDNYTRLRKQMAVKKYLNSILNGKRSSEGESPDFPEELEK

Where “and” joins values, the source holds several entries; their conditions need not be identical. Equal values may be shown once.

Consider “H-HSDAVFTDNYTALRKQMAVKKYLNSILN-NH2 [VIP Ala12]”, for which the Ki in test [1] was 56.1 nM; in test [2], 12.3 nM and 34.7 nM and 30 nM; in test [3], 53.7 nM and 61.7 nM and 50.1 nM.
In the case of “H-HSDAVFTDNYTRLRKQMAAKKYLNSILN-NH2 [VIP Ala19]”, the Ki in test [1] is 3.2 nM; in test [2], 0.85 nM and 2.8 nM and 2.2 nM; in test [3] it was 0.59 nM and 4.1 nM and 2.1 nM.
Take `CC[C@H](C)[C@H](NC(=O)[C@H](CO)NC(=O)[C@H](CC(N)=O)NC(=O)[C@H](CC(C)C)NC(=O)[C@H](Cc1ccc(O)cc1)NC(=O)[C@H](CCCCN)NC(=O)[C@H](CCCCN)NC(=O)[C@@H](NC(=O)[C@H](C)NC(=O)[C@H](CCSC)NC(=O)[C@H](CCC(N)=O)NC(=O)[C@H](CCCCN)NC(=O)[C@H](CCCN=C(N)N)NC(=O)[C@H](CC(C)C)NC(=O)[C@H](CCCN=C(N)N)NC(=O)[C@@H](NC(=O)[C@H](Cc1ccc(O)cc1)NC(=O)[C@H](CC(N)=O)NC(=O)[C@H](CC(=O)O)NC(=O)[C@@H](NC(=O)[C@H](Cc1ccccc1)NC(=O)[C@@H](NC(=O)[C@H](C)NC(=O)[C@@H](CC(=O)O)NC(=O)[C@H](CO)NC(=O)[C@@H](N)Cc1cnc[nH]1)C(C)C)[C@@H](C)O)[C@@H](C)O)C(C)C)C(=O)N[C@@H](CC(C)C)C(=O)N[C@@H](CC(N)=O)C(N)=O` [VIP [D-Asp3]]: the Ki is 9.1 nM in test [1]; 0.93 nM and 5.4 nM and 6.5 nM in test [2].
For `CC[C@H](C)[C@H](NC(=O)[C@H](CO)NC(=O)[C@H](CC(N)=O)NC(=O)[C@H](CC(C)C)NC(=O)[C@H](Cc1ccc(O)cc1)NC(=O)[C@H](CCCCN)NC(=O)[C@H](CCCCN)NC(=O)[C@H](NC(=O)[C@H](C)NC(=O)[C@H](CCSC)NC(=O)[C@H](CCC(N)=O)NC(=O)[C@H](CCCCN)NC(=O)[C@H](CCCN=C(N)N)NC(=O)[C@H](CC(C)C)NC(=O)[C@H](CCCN=C(N)N)NC(=O)[C@@H](NC(=O)[C@H](Cc1ccc(O)cc1)NC(=O)[C@H](CC(N)=O)NC(=O)[C@H](CC(=O)O)NC(=O)[C@@H](NC(=O)[C@H](Cc1ccccc1)NC(=O)[C@@H](NC(=O)[C@H](C)NC(=O)[C@H](CC(=O)O)NC(=O)[C@H](CO)NC(=O)[C@@H](N)Cc1cnc[nH]1)C(C)C)[C@@H](C)O)[C@@H](C)O)C(C)C)C(=O)N[C@@H](CC(C)C)C(=O)N[C@@H](CC(N)=O)C(N)=O` [VIP [D-Val19]], the Ki in test [1] was 34.6 nM; in test [2] it was 6.3 nM and 29.5 nM and 25.1 nM; in test [3], 10.9 nM and 69.2 nM and 58.9 nM.
As to “H-HSDAVFTDNYARLRKQMAVKKYLNSILN-NH2 [VIP Ala11]”, the Ki in test [1] was 2.4 nM; in test [2], 0.34 nM and 1.9 nM and 0.42 nM.
Consider “H-HSDAVFTDNYTRARKQMAVKKYLNSILN-NH2 [VIP Ala13]”, for which the Ki in test [1] is 9.5 nM; in test [2], 1.9 nM and 9.3 nM and 10 nM; in test [3] it was 6.6 nM and 7.2 nM and 3.4 nM.
Regarding `CC[C@H](C)[C@H](NC(=O)[C@H](CO)NC(=O)[C@H](CC(N)=O)NC(=O)[C@H](CC(C)C)NC(=O)[C@H](Cc1ccc(O)cc1)NC(=O)[C@H](CCCCN)NC(=O)[C@H](CCCCN)NC(=O)[C@@H](NC(=O)[C@H](C)NC(=O)[C@H](CCSC)NC(=O)[C@H](CCC(N)=O)NC(=O)[C@H](CCCCN)NC(=O)[C@H](CCCN=C(N)N)NC(=O)[C@H](CC(C)C)NC(=O)[C@H](CCCN=C(N)N)NC(=O)[C@@H](NC(=O)[C@H](Cc1ccc(O)cc1)NC(=O)[C@H](CC(N)=O)NC(=O)[C@H](CC(=O)O)NC(=O)[C@@H](NC(=O)[C@H](Cc1ccccc1)NC(=O)[C@@H](NC(=O)[C@H](C)NC(=O)[C@H](CC(=O)O)NC(=O)[C@@H](CO)NC(=O)[C@@H](N)Cc1cnc[nH]1)C(C)C)[C@@H](C)O)[C@@H](C)O)C(C)C)C(=O)N[C@@H](CC(C)C)C(=O)N[C@@H](CC(N)=O)C(N)=O` [VIP [D-Ser2]], the Ki is 8.1 nM in test [1]; 4.2 nM and 15.1 nM and 38.9 nM in test [2]; 1.9 nM and 18.2 nM and 15.9 nM in test [3].
`CC[C@H](C)[C@H](NC(=O)[C@H](CO)NC(=O)[C@H](CC(N)=O)NC(=O)[C@H](CC(C)C)NC(=O)[C@H](Cc1ccc(O)cc1)NC(=O)[C@H](CCCCN)NC(=O)[C@H](CCCCN)NC(=O)[C@@H](NC(=O)[C@H](C)NC(=O)[C@H](CCSC)NC(=O)[C@@H](CCC(N)=O)NC(=O)[C@H](CCCCN)NC(=O)[C@H](CCCN=C(N)N)NC(=O)[C@H](CC(C)C)NC(=O)[C@H](CCCN=C(N)N)NC(=O)[C@@H](NC(=O)[C@H](Cc1ccc(O)cc1)NC(=O)[C@H](CC(N)=O)NC(=O)[C@H](CC(=O)O)NC(=O)[C@@H](NC(=O)[C@H](Cc1ccccc1)NC(=O)[C@@H](NC(=O)[C@H](C)NC(=O)[C@H](CC(=O)O)NC(=O)[C@H](CO)NC(=O)[C@@H](N)Cc1cnc[nH]1)C(C)C)[C@@H](C)O)[C@@H](C)O)C(C)C)C(=O)N[C@@H](CC(C)C)C(=O)N[C@@H](CC(N)=O)C(N)=O` [VIP [D-Gln16]]: the Ki in test [1] is 11.5 nM; in test [2], 1 nM and 5.6 nM and 9.3 nM; in test [3], 1.1 nM and 2.9 nM and 3.5 nM.
For the compound “H-HSDAVFTDNYTRLRKQMAVKKYANSILN-NH2 [VIP Ala23]”, the inhibition constant Ki is 182 nM in test [1]; 33.9 nM and 213 nM and 204 nM in test [2]; 26.9 nM and 170 nM and 155 nM in test [3].
On to `CC[C@H](C)[C@H](NC(=O)[C@H](CO)NC(=O)[C@H](CC(N)=O)NC(=O)[C@H](CC(C)C)NC(=O)[C@H](Cc1ccc(O)cc1)NC(=O)[C@H](CCCCN)NC(=O)[C@H](CCCCN)NC(=O)[C@@H](NC(=O)[C@H](C)NC(=O)[C@H](CCSC)NC(=O)[C@H](CCC(N)=O)NC(=O)[C@H](CCCCN)NC(=O)[C@H](CCCN=C(N)N)NC(=O)[C@H](CC(C)C)NC(=O)[C@@H](CCCN=C(N)N)NC(=O)[C@@H](NC(=O)[C@H](Cc1ccc(O)cc1)NC(=O)[C@H](CC(N)=O)NC(=O)[C@H](CC(=O)O)NC(=O)[C@@H](NC(=O)[C@H](Cc1ccccc1)NC(=O)[C@@H](NC(=O)[C@H](C)NC(=O)[C@H](CC(=O)O)NC(=O)[C@H](CO)NC(=O)[C@@H](N)Cc1cnc[nH]1)C(C)C)[C@@H](C)O)[C@@H](C)O)C(C)C)C(=O)N[C@@H](CC(C)C)C(=O)N[C@@H](CC(N)=O)C(N)=O` [VIP [D-Arg12]], for which the Ki is 16.9 nM in test [1]; 2.8 nM and 11.7 nM and 19.1 nM in test [2]; 2.2 nM and 18.2 nM and 14.4 nM in test [3].
For the compound “H-HSDAVFTDAYTRLRKQMAVKKYLNSILN-NH2 [VIP Ala9]”, the Ki is 1.6 nM in test [1]; 0.16 nM and 1.3 nM and 0.49 nM in test [2]; 0.29 nM and 1.8 nM and 1.4 nM in test [3].
On to “H-HSDAVFTDNYTRLRKAMAVKKYLNSILN-NH2 [VIP Ala16]”, for which the Ki was 5.1 nM in test [1]; 0.93 nM and 2.1 nM and 1.1 nM in test [2].
Turning to `CC[C@H](C)[C@H](NC(=O)[C@H](CO)NC(=O)[C@H](CC(N)=O)NC(=O)[C@H](CC(C)C)NC(=O)[C@H](Cc1ccc(O)cc1)NC(=O)[C@H](CCCCN)NC(=O)[C@H](CCCCN)NC(=O)[C@@H](NC(=O)[C@H](C)NC(=O)[C@H](CCSC)NC(=O)[C@H](CCC(N)=O)NC(=O)[C@H](CCCCN)NC(=O)[C@H](CCCN=C(N)N)NC(=O)[C@H](CC(C)C)NC(=O)[C@H](CCCN=C(N)N)NC(=O)[C@@H](NC(=O)[C@H](Cc1ccc(O)cc1)NC(=O)[C@H](CC(N)=O)NC(=O)[C@H](CC(=O)O)NC(=O)[C@H](NC(=O)[C@H](Cc1ccccc1)NC(=O)[C@@H](NC(=O)[C@H](C)NC(=O)[C@H](CC(=O)O)NC(=O)[C@H](CO)NC(=O)[C@@H](N)Cc1cnc[nH]1)C(C)C)[C@H](C)O)[C@@H](C)O)C(C)C)C(=O)N[C@@H](CC(C)C)C(=O)N[C@@H](CC(N)=O)C(N)=O` [VIP [D-Thr7]], the Ki in test [1] was 200 nM; in test [2], 87.1 nM and 324 nM and 437 nM; in test [3] it was 162 nM and 288 nM and 214 nM.
In the case of “H-HSDAVFTDNYTRLRKQAAVKKYLNSILN-NH2 [VIP Ala17]”, the Ki was 4 nM in test [1]; 1.6 nM and 5 nM and 3.6 nM in test [2]; 0.74 nM and 4.5 nM and 3.9 nM in test [3].
In the case of `CC[C@H](C)[C@H](NC(=O)[C@H](CO)NC(=O)[C@H](CC(N)=O)NC(=O)[C@H](CC(C)C)NC(=O)[C@H](Cc1ccc(O)cc1)NC(=O)[C@H](CCCCN)NC(=O)[C@H](CCCCN)NC(=O)[C@@H](NC(=O)[C@H](C)NC(=O)[C@H](CCSC)NC(=O)[C@H](CCC(N)=O)NC(=O)[C@H](CCCCN)NC(=O)[C@H](CCCN=C(N)N)NC(=O)[C@H](CC(C)C)NC(=O)[C@H](CCCN=C(N)N)NC(=O)[C@@H](NC(=O)[C@H](Cc1ccc(O)cc1)NC(=O)[C@H](CC(N)=O)NC(=O)[C@H](CC(=O)O)NC(=O)[C@@H](NC(=O)[C@H](Cc1ccccc1)NC(=O)[C@@H](NC(=O)[C@H](C)NC(=O)[C@H](CC(=O)O)NC(=O)[C@H](CO)NC(=O)[C@@H](N)Cc1cnc[nH]1)C(C)C)[C@@H](C)O)[C@@H](C)O)C(C)C)C(=O)N[C@@H](CC(C)C)C(=O)N[C@H](CC(N)=O)C(N)=O` [VIP [D-Asn28]], the Ki is 14.8 nM in test [1]; 1.5 nM and 6.3 nM and 11.8 nM in test [2].
With `CC[C@H](C)[C@H](NC(=O)[C@H](CO)NC(=O)[C@H](CC(N)=O)NC(=O)[C@H](CC(C)C)NC(=O)[C@H](Cc1ccc(O)cc1)NC(=O)[C@H](CCCCN)NC(=O)[C@H](CCCCN)NC(=O)[C@@H](NC(=O)[C@H](C)NC(=O)[C@H](CCSC)NC(=O)[C@H](CCC(N)=O)NC(=O)[C@H](CCCCN)NC(=O)[C@H](CCCN=C(N)N)NC(=O)[C@H](CC(C)C)NC(=O)[C@H](CCCN=C(N)N)NC(=O)[C@@H](NC(=O)[C@H](Cc1ccc(O)cc1)NC(=O)[C@H](CC(N)=O)NC(=O)[C@H](CC(=O)O)NC(=O)[C@H](C)NC(=O)[C@H](Cc1ccccc1)NC(=O)[C@@H](NC(=O)[C@H](C)NC(=O)[C@H](CC(=O)O)NC(=O)[C@H](CO)NC(=O)[C@@H](N)Cc1cnc[nH]1)C(C)C)[C@@H](C)O)C(C)C)C(=O)N[C@@H](CC(C)C)C(=O)N[C@@H](CC(N)=O)C(N)=O` [VIP Ala7], the Ki in test [1] was 66.1 nM; in test [2], 16.2 nM and 107 nM and 53.7 nM; in test [3], 17.8 nM and 51.3 nM and 35.7 nM.
With “H-HSDAVFTDNYTRLRKQMAVKAYLNSILN-NH2 [VIP Ala21]”, the Ki in test [1] is 3.2 nM; in test [2] it was 0.38 nM and 2.1 nM and 0.51 nM; in test [3], 0.87 nM and 5 nM and 5.1 nM.
